Experimental data published in PubChem BioAssay (NCI).
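Tested at 5 concentrations; 48 h exposure; 96-well plates; endpoints linearly interpolated, else capped at highest concentration. TGI denotes the concentration required for complete inhibition of growth.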 Where a SMILES comes first, the peptide text is derived from it. The star is where a group is joined. Boc = CC(C)(C)OC(=O)*; OBn = c1ccc(CO*)cc1; Bn = c1ccc(C*)cc1

Assays:
Experiment in all cases: NCI anticancer screen, dose series, 48 h
SW-620 colon = test system: SW-620 colon
HCT-116 colon = test system: HCT-116 colon
KM12 colon = test system: KM12 colon
BT-549 breast = test system: BT-549 breast
SK-MEL-2 melanoma = test system: SK-MEL-2 melanoma
M14 melanoma = test system: M14 melanoma
NCI/ADR-RES ovarian = test system: NCI/ADR-RES ovarian
SR leukemia = test system: SR leukemia
SF-295 CNS = test system: SF-295 CNS
RXF 393 renal = test system: RXF 393 renal

Compound	TGI (SW-620 colon) [µM]	TGI (HCT-116 colon) [µM]	TGI (KM12 colon) [µM]	TGI (BT-549 breast) [µM]	TGI (SK-MEL-2 melanoma) [µM]	TGI (M14 melanoma) [µM]	TGI (NCI/ADR-RES ovarian) [µM]	TGI (SR leukemia) [µM]	TGI (SF-295 CNS) [µM]	TGI (RXF 393 renal) [µM]
O=C1CCCc2ccc3c(c21)CC1(Cc2cc4c(cc2C1)CCCC4)C3	41.7	34.6	66.3	72.6	48.9	33.2	> 100	31.5	75.7	32
CC(CCC(=O)O)(c1cc(Br)c(O)c(Br)c1)c1cc(Br)c(O)c(Br)c1	> 100	> 100	> 100	> 100	> 100	> 100	> 100	> 100	> 100	> 100
N.N.NCCCCN.O=C([O-])CCl.O=C([O-])CCl.O=C([O-])CCl.O=C([O-])CCl.[Pt+4].[Pt+4]	> 50	> 50	> 50		> 50	> 50		> 50	> 50	> 50
NC(=O)c1ncn(C2CCC(CP(=O)(O)O)C2)c1N (stereo unspecified)	> 100	> 100	> 100		> 100	> 100	> 100	> 100	> 100	> 100
CN(C)CCNc1ccccn1	> 100	> 100	> 100	> 100	> 100	> 100	> 100	> 100	> 100	> 100
C=CCn1c(-c2ccc(N=NNc3ccc(-c4n[nH]c(=S)n4CC=C)cc3)cc2)n[nH]c1=S	> 100			6.68		> 100	61.4	> 100	15.7	37.8
O=C1N2CCN=C2c2ccccc2C1(O)c1ccccc1 (stereo unspecified)	> 100	> 100	> 100	> 100		> 100	> 100	> 100	> 100	
CC(CC(C)[C@H]1CCC2[C@H]3C(CC[C@@]21C)[C@@]1(C)CCC(O)C[C@H]1C[C@@H]3O)C(=O)O (stereo partly specified)	> 100	> 100	> 100	> 100	> 100	> 100	> 100	> 100		> 100
COC(=O)c1ccc2c(c1)CC1(C2)Cc2ccc3c(c2C1)CCC3 (stereo unspecified)	> 100	> 100	40.9			13		> 100	66.4	> 100
O=C(/C=C/c1ccccc1O)CC(=O)/C=C/c1ccccc1O	24	7.42		45.7	17	> 31.6	14.5	> 25	> 31.6	9.06
Cc1cc(CC(O)(C(F)(F)F)C(F)(F)F)cc(CC(O)(C(F)(F)F)C(F)(F)F)n1	> 100	6.09	5.13		5.45	12	5.95	15.1	9.94	14.9
CCCc1c(OC)c(O)c2c(=O)cc(OC)c3c4c(OC)cc(=O)c5c(O)c(OC)c(CCC)c(c1c23)c54	16.9	13.2	53.7	19.8	22.1	20.4	25.1	> 100	31.6	
C/C(=C/CC[C@](C)(OC1OC(CO)C(O)C(O)C1OC1OC(C)C(O)C(O)C1O)[C@H]1CC[C@]2(C)[C@@H]1CC[C@@H]1[C@@]3(C)CC[C@H](O)C(C)(C)[C@@H]3C[C@H](O)[C@]12C)CO (stereo partly specified)	> 100	> 100	> 100	> 100		> 100	> 100	> 100	> 100	> 100
Clc1ccc2nc3c(c(-c4ccccc4)nn3-c3ccccc3)c(-c3ccccc3)c2c1	> 100	> 100	> 100	> 100	> 100	> 100	> 100	> 100	> 100	
NC(=O)NC1=NCCC(=O)N1CCc1c[nH]c2ccccc12	57.7	26.4	52.4		29.3	29.3	52.8	57.3	> 100	48.3
CCOC(=O)C(NC(=O)Nc1ccccc1)(Nc1cccc(Cl)c1)C(F)(F)F (stereo unspecified)	> 100	> 100	> 100	> 100	> 100	> 100	> 100	> 100		> 100
Nc1c(Cl)ncnc1NCC1(CO)CCC1	> 100	> 100	> 100	> 100	> 100		> 100	> 100	> 100	
COc1ccc(/C=N/N=C(N)N)c(C(=O)O)c1OC	> 100	> 100	> 100			> 100			> 100	> 100
C=C1CN(C(=O)c2cc3cc(OC)c(OC)c(OC)c3[nH]2)c2cc([N+](=O)[O-])ccc21	> 100	> 100	> 100	> 100	> 100	> 100	> 100	> 100		> 100
CCCCOP(=O)(OCCCC)C(NS(=O)(=O)c1ccccc1)(C(=O)OCC)C(F)(F)F (stereo unspecified)		66.9	93.2			68	64.6	> 100	> 100	53
Cc1ccc(N=c2oc3c(ccc4ccccc43)nc2Nc2ccc(C)cc2)cc1	> 100	> 100	> 100		> 100		> 100	> 100	> 100	> 100
CCOC(=O)n1c2ccccc2c2c(O)c(OC)c3c(c21)C(=O)NC3=O	> 100	49	> 100	> 100	> 100	> 100	81.3	87.9	> 100	
CC(C)CC(NC(=O)C(CCC(=O)OCc1ccccc1)NC(=O)OC(C)(C)C)C(=O)NC(COCc1ccccc1)C(=O)NC(Cc1ccccc1)C(=O)O (stereo unspecified) (Boc-E(OBn)LS(Bn)F-OH; configuration not given here)	> 100	> 100	> 100	> 100	> 100	> 100		> 100		> 100
